Data reported in publication PMC6561338 (Organic & biomolecular chemistry, 2018).
Where two headings read alike, the source gives them in different places.

Key:
[1] = target: recombinant human S1PR1 (Homo sapiens, UniProt P21453); assay: [32P]S1P competitive binding assay, S1PR1; conditions: for fold decrease of S1PR1 binding potency compared to 10a: ratio of IC50 values versus 10a
[2] = target: recombinant human S1PR2 (Homo sapiens, UniProt O95136); assay: [32P]S1P competitive binding assay, S1PR2
[3] = target: recombinant human S1PR3 (Homo sapiens, UniProt Q99500); assay: [32P]S1P competitive binding assay, S1PR3
[4] = target: T1, recombinant human S1PR4 (Homo sapiens, UniProt O95977); assay: [32P]S1P competitive binding assay, S1PR4; conditions: read-out: IC50 S1PR4; competition against [32P]S1P, recombinant human S1PR4 membranes; mean ± SD
T1 sequence (O95977 1-384): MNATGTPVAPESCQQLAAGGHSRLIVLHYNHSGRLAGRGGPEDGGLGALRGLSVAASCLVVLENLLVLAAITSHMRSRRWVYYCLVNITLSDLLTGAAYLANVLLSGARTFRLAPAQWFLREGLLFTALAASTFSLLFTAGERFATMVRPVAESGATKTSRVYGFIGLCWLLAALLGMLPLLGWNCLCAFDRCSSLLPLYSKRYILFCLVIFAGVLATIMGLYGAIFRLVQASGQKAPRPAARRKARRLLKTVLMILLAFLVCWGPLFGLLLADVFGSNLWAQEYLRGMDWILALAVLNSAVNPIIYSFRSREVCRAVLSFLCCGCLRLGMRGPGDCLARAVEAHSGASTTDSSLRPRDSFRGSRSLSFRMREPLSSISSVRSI

[5] = target: recombinant human S1PR5 (Homo sapiens, UniProt Q9H228); assay: [32P]S1P competitive binding assay, S1PR5; conditions: read-out: IC50 S1PR5; competition against [32P]S1P, recombinant human S1PR5 membranes; mean ± SD
[6] = read-out: IC50 S1PR1, competition against [32P]S1P, cell membranes expressing recombinant human S1PR1, mean ± SD, at least 3 independent experiments in duplicate

Chain of recombinant human S1PR1 (P21453 whole entry): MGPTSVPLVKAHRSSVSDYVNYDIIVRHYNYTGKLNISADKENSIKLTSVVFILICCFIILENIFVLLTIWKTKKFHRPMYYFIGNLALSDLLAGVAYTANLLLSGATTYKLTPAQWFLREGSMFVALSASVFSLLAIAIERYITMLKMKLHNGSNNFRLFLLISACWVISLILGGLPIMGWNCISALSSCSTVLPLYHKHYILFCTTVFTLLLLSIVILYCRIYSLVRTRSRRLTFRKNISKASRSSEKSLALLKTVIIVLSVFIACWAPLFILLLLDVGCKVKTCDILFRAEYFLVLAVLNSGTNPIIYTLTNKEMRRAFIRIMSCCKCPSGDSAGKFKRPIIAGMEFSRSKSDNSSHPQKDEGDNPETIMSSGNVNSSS
Chain of recombinant human S1PR2 (O95136 whole entry): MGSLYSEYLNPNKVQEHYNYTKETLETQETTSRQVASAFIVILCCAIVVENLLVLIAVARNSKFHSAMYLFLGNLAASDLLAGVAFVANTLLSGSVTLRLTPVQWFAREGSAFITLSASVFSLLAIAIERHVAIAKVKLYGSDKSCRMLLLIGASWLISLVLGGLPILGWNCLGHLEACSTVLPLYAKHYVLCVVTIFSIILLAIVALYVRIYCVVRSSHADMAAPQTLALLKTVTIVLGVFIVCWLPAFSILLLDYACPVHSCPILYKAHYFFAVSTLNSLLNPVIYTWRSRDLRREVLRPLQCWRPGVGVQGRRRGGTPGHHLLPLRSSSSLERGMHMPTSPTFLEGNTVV
Chain of recombinant human S1PR3 (Q99500 whole entry): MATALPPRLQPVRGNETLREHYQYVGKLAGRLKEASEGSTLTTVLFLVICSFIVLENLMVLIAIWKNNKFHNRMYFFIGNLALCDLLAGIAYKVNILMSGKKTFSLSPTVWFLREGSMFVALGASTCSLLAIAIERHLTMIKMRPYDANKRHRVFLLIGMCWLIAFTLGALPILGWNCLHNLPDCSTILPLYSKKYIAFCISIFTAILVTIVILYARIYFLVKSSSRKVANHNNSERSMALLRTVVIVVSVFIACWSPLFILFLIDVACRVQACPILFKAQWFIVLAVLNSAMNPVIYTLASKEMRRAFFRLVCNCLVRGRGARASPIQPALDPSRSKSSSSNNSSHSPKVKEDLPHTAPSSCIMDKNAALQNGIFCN
Chain of recombinant human S1PR5 (Q9H228 whole entry): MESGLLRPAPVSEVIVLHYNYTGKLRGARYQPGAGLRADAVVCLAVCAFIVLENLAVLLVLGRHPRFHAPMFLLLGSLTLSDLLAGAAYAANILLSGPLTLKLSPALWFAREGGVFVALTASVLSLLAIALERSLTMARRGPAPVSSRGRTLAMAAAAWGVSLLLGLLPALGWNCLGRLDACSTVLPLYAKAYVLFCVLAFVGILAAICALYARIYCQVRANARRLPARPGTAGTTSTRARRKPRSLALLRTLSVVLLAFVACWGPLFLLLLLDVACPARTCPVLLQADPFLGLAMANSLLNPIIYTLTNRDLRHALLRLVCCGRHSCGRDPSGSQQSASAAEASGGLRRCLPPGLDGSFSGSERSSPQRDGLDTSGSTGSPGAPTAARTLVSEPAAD

`N#Cc1cc(-c2nc(-c3ccc(CO)cc3)no2)ccc1OCCF` [10b, 2-(2-Fluoroethoxy)-5-(3-(4-(hydroxymethyl)phenyl)-1,2,4-oxadiazol-5-yl)benzonitrile] was tested, and the “fold decrease of S1PR1 binding potency compared to 10a” value [1] was 2.3 fold.

`OCc1ccc(-c2noc(-c3ccc(OCCF)c(C(F)(F)F)c3)n2)cc1` [10a, (4-(5-(4-(2-Fluoroethoxy)-3-(trifluoromethyl)phenyl)-1,2,4-oxadiazol-3-yl)phenyl)methanol] showed an IC50 [2] of over 1000 nM and an IC50 [3] of over 1000 nM.

`OCc1ccc(-c2noc(-c3ccc(OCCF)cc3)n2)cc1` [10c, (4-(5-(4-(2-Fluoroethoxy)phenyl)-1,2,4-oxadiazol-3-yl)-phenyl)-methanol] gave an IC50 [1] of over 1000 nM.

`OCCOCc1ccc(-c2noc(-c3ccc(OCCF)c(C(F)(F)F)c3)n2)cc1` [17a, 2-((4-(5-(4-(2-Fluoroethoxy)-3-(trifluoromethyl)phenyl)-1,2,4-oxadiazol-3-yl)benzyl)oxy)ethan-1-ol] gave an IC50 [2] of over 1000 nM and an IC50 [3] of over 1000 nM.

In the case of `OCC(O)COCc1ccc(-c2noc(-c3ccc(OCCF)c(C(F)(F)F)c3)n2)cc1` (racemic) [(±)-20b, (±)-3-((4-(5-(4-(2-Fluoroethoxy)-3-(trifluoromethyl)phenyl)-1,2,4-oxadiazol-3-yl)benzyl)oxy)propane-1,2-diol], the IC50 [1, 6] is reported as 23.8 nM.

`OCCOc1ccc(-c2noc(-c3ccc(OCCF)c(C(F)(F)F)c3)n2)cc1` [20a, 2-(4-(5-(4-(2-Fluoroethoxy)-3-(trifluoromethyl)phenyl)-1,2,4-oxadiazol-3-yl)phenoxy)ethan-1-ol] gave an IC50 [1] of 56.6 nM.

`CN(Cc1ccc(-c2noc(-c3ccc(OCCF)c(C(F)(F)F)c3)n2)cc1)CC(O)CO` (racemic) [(±)-13a, (±)-3-((4-(5-(4-(2-Fluoroethoxy)-3-(trifluoromethyl)phenyl)-1,2,4-oxadiazol-3-yl)benzyl)(methyl)amino)propane-1,2-diol] showed an IC50 [1, 6] of 39.9 nM.

`OCCNCc1ccc(-c2noc(-c3ccc(OCCF)c(C(F)(F)F)c3)n2)cc1` [13d, 2-((4-(5-(4-(2-Fluoroethoxy)-3-(trifluoromethyl)phenyl)-1,2,4-oxadiazol-3-yl)benzyl)amino)ethan-1-ol] was tested, and the IC50 [1] was 48.2 nM.

With `CN(CCO)Cc1ccc(-c2noc(-c3ccc(OCCF)c(C(F)(F)F)c3)n2)cc1` [13b, 2-((4-(5-(4-(2-Fluoroethoxy)-3-(trifluoromethyl)phenyl)-1,2,4-oxadiazol-3-yl)benzyl)(methyl)amino)ethan-1-ol] the IC50 [1] was 38 nM.

With `OCC(O)c1ccc(-c2noc(-c3ccc(OCCF)c(C(F)(F)F)c3)n2)cc1` (racemic) [(±)-24, (±)-1-(4-(5-(4-(2-Fluoroethoxy)-3-(trifluoromethyl)phenyl)-1,2,4-oxadiazol-3-yl)phenyl)ethane-1,2-diol] the IC50 [1, 6] was under 20 nM, the IC50 ([2]; read-out: IC50 S1PR2, competition against [32P]S1P, recombinant human S1PR2 membranes, mean ± SD) was over 1000 nM and the IC50 ([3]; read-out: IC50 S1PR3, competition against [32P]S1P, recombinant human S1PR3 membranes, mean ± SD) was over 1000 nM. It also gave an IC50 [4] of over 1000 nM and an IC50 [5] of over 1000 nM.

`OCCOCCOCc1ccc(-c2noc(-c3ccc(OCCF)c(C(F)(F)F)c3)n2)cc1` [17b, 2-(2-((4-(5-(4-(2-Fluoroethoxy)-3-(trifluoromethyl)phenyl)-1,2,4-oxadiazol-3-yl)benzyl)oxy)ethoxy)ethan-1-ol] was tested, and the IC50 [2] was over 1000 nM and the IC50 [3] was over 1000 nM.

With `OCCOCCOCCOCc1ccc(-c2noc(-c3ccc(OCCF)c(C(F)(F)F)c3)n2)cc1` [17c, 2-(2-(2-((4-(5-(4-(2-Fluoroethoxy)-3-(trifluoromethyl)phenyl)-1,2,4-oxadiazol-3-yl)benzyl)oxy)ethoxy)ethoxy)ethan-1-ol] the “fold decrease of S1PR1 binding potency compared to 10a” value [1] was “approximately 16 fold”.
